The test system of series [1] is MiaPaCa-2 cells. The series is described as follows: MTT cytotoxicity assay, MiaPaCa-2. Type of series: cell-based. Conditions: MTT assay, 72 h. As for the experimental part:
(§1) MiaPaCa-2, Panc-1 and BxPC-3 pancreatic cancer cell lines were obtained from the ATCC. Normal pancreatic cells HPDE and HPNE were kindly provided (Translational Oncology Program, University of […], Ann Arbor, Mich.). Gemcitabine resistant cell line MiaPaCa-2-GR (gemcitabine resistant) was kindly provided (Department of Pathology, Wayne State University, Detroit, Mich.). All cell lines were cultured as monolayer and maintained in RPMI1640 supplemented with 10% fetal bovine serum (FBS) in a humidified atmosphere with 5% CO2 at 37° C. MiaPaCa-2-GR culture was supplemented with 200 nM gemcitabine.
(§2) Cytotoxicity of compounds was evaluated with 3-(4,5-dimethylthiazol-2-yl)-2,5-diphenyltetrazolium bromide (MTT) assay. Cells were placed in 96-well plate at 3000-8000 cells/well. After overnight attachment, compounds were added to the wells at sequential dilutions (30 nM-10 μM for most cell lines). After 72 h treatment, MTT was added into the media to a final concentration of 300 μg/mL. Cells were incubated for 3 h at 37° C., and the insoluble formazan converted by viable cells were dissolved in 150 μL of DMSO. Absorbance at 570 nm was read by microplate reader (Molecular devices, Sunnyvale, Calif.), and inhibition of cell proliferation was calculated using the following formula: Inhibition of cell proliferation (%)=(1−ODtreatment/ODcontrol)×100%
Background: Formazan colour is commonly taken as a measure of viable cells.

Series [2] relates to Panc-1 cells. The series is described as follows: MTT cytotoxicity assay, Panc-1. It counts as cell-based. The conditions noted are these: Homo sapiens, PANC-1, 72 h, Table 1, 72 h, Mean ± SD, three independent experiments. The protocol: as §1, §2
Series [3] has as its system pancreatic cancer. The conditions noted are these: cited from earlier work.
Series [4] concerns BxPC-3 cells. The series is described as follows: MTT cytotoxicity assay, BxPC-3. It counts as cell-based. The conditions noted are these: Homo sapiens, BXPC-3, 72 h, Table 1, 72 h, Mean ± SD, three independent experiments. As for the experimental part: as §1, §2
The subject of series [5] is MiaPaCa-2 xenograft. Put plainly: MiaPaCa-2 xenograft studies. Type of series: in vivo, NOD/SCID mice. The conditions noted are these: QD325 5 mg/kg five times a week; gemcitabine 15 mg/kg once a week; control 1503±189 mm^3. The protocol: MiaPaCa-2 cells (2.0×10^6) in a 100 μL suspension of RPMI1640 was injected subcutaneously into dorsal flank of 6-week NOD/SCID mice. Tumor size was monitored twice a week through caliper measurement using the following equation: V=d^2×D/2, where d represents width and D represents length of the tumor. In study 1, mice were randomly grouped (n=5 per group) when average tumor size reached 65 mm^3. Daily treatment was given at five days on two days off cycles. QD325 was given at 5 mg/kg in 100 μL vehicle (5% DMSO, 60% Propylene glycol, 35% Saline) by intraperitoneal injection. […] Unpaired t test was performed for data analysis and p<0.05 was considered significant. […] Procedures for study 2 with gemcitabine treatment are detailed in supplemental information.
On necropsy, tumors, hearts, kidneys, livers, lungs, spleens and pancreases were collected, fixed in 10% neutral buffered formalin, embedded in paraffin, and sectioned. Sections ([…]) were stained with hematoxylin and eosin to facilitate histologic examination. For Ki67 expression level, immunohistochemistry staining was performed on sections with Ki67 antibody. Embedding, sectioning and staining of samples were performed by ULAM pathology core for animal research at the University of Michigan. Representative images were taken on Olympus IX83 microscope with 20× magnification.

Series [6] relates to mtDNA content in MiaPaCa-2 cells. Put plainly: Measurement of mtDNA content by qPCR. It counts as cell-based. The conditions noted are these: MiaPaCa-2, 6 h; 12S rRNA vs genomic 18S rRNA (FIG. 11B). The protocol: To assess mtDNA content, genomic DNA was isolated with QIAamp® DNA mini kit (Qiagen, Germantown, Md.) from MiaPaCa-2 cells. The mtDNA content was evaluated by co-amplifying a DNA fragment encoding mitochondrial 12S rRNA (forward primer: 5′-[…]-3′; reverse primer: 5′-TGCGCTTACTTTGTAG CCTTCAT-3′) and a DNA fragment encoding the nuclear 18S rRNA (forward primer: 5′-CCCTGCC CTTTGTACACACC-3′; reverse primer: 5′-GATCCGAGGGCCTCACTA-3′). (Vadrot et al., 2012) Real-time qPCR was performed on Viia7 cycler (Applied Biosystems). Amplifications were monitored and analyzed by measuring the intercalation of the fluorescent dye from Fast SYBR® Green Master Mix (Applied Biosystems). Relative mtDNA contents were calculated using 18S rRNA as gene reference.
A general note: Real-time PCR tracks product formation cycle by cycle.

Series [7] concerns MiaPaCa-2 cells. The series is described as follows: ROS detection assay (H2DCFDA probe). Conditions: MiaPaCa-2; NAC 5 mM for 30 min pretreatment (FIG. 3B). Type of series: cell-based. The protocol: To quantify ROS induction by redox modulators, a high throughput ROS assay in 384-well plates using H2DCFDA as the ROS detection probe was developed (FIG. 1A).
Cells were detached by 0.05% trypsin-EDTA, neutralized, centrifuged (1200 rpm, 5 min) and resuspended in cell culture media. Suspension were then treated with 20 μM cell permeable H2DCFDA for 30 min at 37° C. Cells were then centrifuged (1200 rpm, 5 min) and washed with cell culture media to remove excess probe. After washing, cells were placed in black-wall 384-well plate at 20,000 cells/well, incubated for 30 min and treated by compounds at designated conditions. Fluorescent signal were then read at 493 nm/523 nm on BioTek H1 plate reader for ROS detection.

Structures can show the parent of a compound that is named as a salt. Where two headings read alike, the source gives them in different places.

Broadly, the IC50 is the point on the concentration scale where inhibition reaches its midpoint. The low end stands for inhibition by little substance, the high end for a need for much substance. Take `Nc1ccn([C@@H]2O[C@H](CO)[C@@H](O)C2(F)F)c(=O)n1` [Gemcitabine, 2′-deoxy-2′, 2′-difluorocytidine monohydrochloride (b-isomer), reference compound]: the IC50 in series [1] (Homo sapiens, MIA PaCa-2, 72 h, Table 1, Mean ± SD, three independent experiments) was 110 ± 70 nM; in series [2], 200 ± 100 nM; in series [4], 50 ± 20 nM. The median overall survival is listed as 6.8 months in series [3] (metastatic pancreatic cancer, gemcitabine group vs FOLFIRINOX group (Conroy et al., 2011)) and 6.7 months in series [3] (pancreatic cancer patients, addition of nab-paclitaxel to gemcitabine (Von Hoff et al., 2013)). Besides, in series [5], the “average tumor size at the end of the 48-day treatment period” value is on record as 387±74 mm^3.
With `OO` [H2O2, reference compound], in series [1] (NAC 5 mM (FIG. 3C)), the “cytotoxicity in presence of NAC” value is on record as “decreased cytotoxicity”. Moreover, the “mtDNA content 6 hours after treatment” value in series [6] is recorded as “small but significant decrease in mtDNA content”. In addition, the “ROS induction after NAC pretreatment” value in series [7] is reported as “blocked”.

(Values after patent publication US10781183B2, “Small molecule inducers of reactive oxygen species and inhibitors of mitochondrial activity” (The Regents of the University of Michigan, priority 2016, dated 2020).)
